Target: T1, human M1 receptor (hCHRM1) (Homo sapiens, UniProt P11229)
T1 construct: expressed in transfected cells
T1 sequence (P11229 1-460): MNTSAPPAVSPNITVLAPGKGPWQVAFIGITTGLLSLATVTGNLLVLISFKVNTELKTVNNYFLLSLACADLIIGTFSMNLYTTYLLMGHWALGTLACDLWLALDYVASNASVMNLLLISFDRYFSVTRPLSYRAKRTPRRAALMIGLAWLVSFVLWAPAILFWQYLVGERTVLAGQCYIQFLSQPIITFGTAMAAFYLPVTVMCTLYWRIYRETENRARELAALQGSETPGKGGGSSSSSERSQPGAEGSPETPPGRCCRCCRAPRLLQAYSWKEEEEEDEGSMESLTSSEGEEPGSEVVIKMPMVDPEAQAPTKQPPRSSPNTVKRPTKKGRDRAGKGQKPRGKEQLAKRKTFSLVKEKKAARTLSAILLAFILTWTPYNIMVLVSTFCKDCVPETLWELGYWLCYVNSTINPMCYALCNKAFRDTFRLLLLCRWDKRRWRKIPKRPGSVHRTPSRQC
Assay: Measurement of M1 receptor positive allosteric modulator (M1PAM) activity, Ca2+ fluorescence by FLIPRtetra (Experimental Example 1)
Assay type: cell-based
Conditions: for activity (%) at 10 μM: 10 μM test compound, 100% = acetylcholine 1 μM, 0% = DMSO; for EC50: inflection point of concentration-dependent curve, in presence of acetylcholine at EC20 (0.8-1.0 nM), CHO-K1 cells expressing hCHRM1, read-out: IP value
Description: Measurement of M1 Receptor Positive Allosteric Modulator (M1PAM) Activity
The activity of a test compound in the presence of acetylcholine at EC20 concentration (final concentration 0.8-1.0 nM), which affords an action corresponding to about 20% of the maximum activity, was measured as PAM activity. The method is as follows. CHO-K1 cells stably expressing a human M1 receptor (hCHRM1) were plated on a 384-well black clear bottom plate (BD Falcon) at 5,000 cells/well, and cultured in an incubator at 37° C., 5% CO2 for 1 day. The medium in the cell plate was removed, and a dye solution (prepared by adding Recording medium (DOJINDO LABORATORIES) to a final concentration of 1×concentration, Fluo-4 AM (DOJINDO LABORATORIES) to a final concentration of 2.5 μg/mL, Pluronic F127 (DOJINDO LABORATORIES) to a final concentration of 0.08%, and probenecid (DOJINDO LABORATORIES) to a final concentration of 1.25 mM to assay buffer (HBSS (Invitrogen), 20 mM HEPES (Invitrogen), 0.1% BSA (Wako Pure Chemical Industries, Ltd.))) was added at 30 μL/well. The cells were left standing in the incubator at 37° C., 5% CO2 for 30 min, and further left standing at room temperature for 30 min. A test compound prepared by diluting with assay buffer containing 3.2-4.0 nM acetylcholine was added at 10 μL/well, and the fluorescence was measured by FLIPRtetra (Molecular Devices) for 1 min every 1 second. With the definition that the amount of change in the fluorescence on addition of acetylcholine (final concentration 1 μM) is 100% and that on addition of DMSO instead of a test compound is 0%, the activity (%) of the test compound was calculated, and the inflection point in the concentration-dependent curve of the test compound was calculated as IP values.

Row | activity (%) at 10 μM | EC50 | SMILES
1 | 104% | 110 nM | Cc1cc2c(cc1CN1CCC(F)(F)CC1)C(=O)N([C@H]1CCCC[C@@H]1O)CO2 (relative stereo) [Example 85, 6-((4,4-difluoropiperidin-1-yl)methyl)-3-(trans-2-hydroxycyclohexyl)-7-methyl-2,3-dihydro-4H-1,3-benzoxazin-4-one]
2 | 102% | 60 nM | N#CC1CCN(Cc2cc3c(c4ccccc24)OCN([C@H]2CCC[C@@H]2O)C3=O)C1 (stereo partly drawn) [Example 75, 1-((3-((1S,2S)-2-hydroxycyclopentyl)-4-oxo-3,4-dihydro-2H-naphtho[2,1-e][1,3]oxazin-6-yl)methyl)pyrrolidine-3-carbonitrile (diastereoisomer)]
3 | 110% | 86 nM | Cc1ccc(Cc2cc3c(c(F)c2Cl)OCN([C@H]2CCC[C@@H]2O)C3=O)cn1 [Example 81, 7-chloro-8-fluoro-3-((1S,2S)-2-hydroxycyclopentyl)-6-((6-methylpyridin-3-yl)methyl)-2,3-dihydro-4H-1,3-benzoxazin-4-one]
4 | 94% | 16 nM | Cc1ccc(Cc2cc3c(c4ccccc24)OCN(CC2CCCO2)C3=O)cn1 (stereo not shown) [Example 58, 6-((6-methylpyridin-3-yl)methyl)-3-(tetrahydrofuran-2-ylmethyl)-2,3-dihydro-4H-naphtho[2,1-e][1,3]oxazin-4-one]
5 | 90% | 48 nM | Cc1ccc(Cc2cc3c(c4ccccc24)OCN(CC2CCCO2)C3=O)cn1 (stereo not shown) [Example 68, 6-((6-methylpyridin-3-yl)methyl)-3-(tetrahydrofuran-2-ylmethyl)-2,3-dihydro-4H-naphtho[2,1-e][1,3]oxazin-4-one]
6 | 99% | 100 nM | COc1ccc(Cc2cc3c(cc2C)OCN([C@H]2COCC[C@@H]2O)C3=O)cc1 (relative stereo) [Example 86, 1,5-anhydro-2,4-dideoxy-2-(6-(4-methoxybenzyl)-7-methyl-4-oxo-2H-1,3-benzoxazin-3(4H)-yl)-threo-pentitol]
7 | 116% | 11 nM | Cc1c(Cc2ccc(Cl)nc2)cc2c(c1F)OCN([C@H]1CCCC[C@@H]1O)C2=O [Example 54, 6-((6-chloropyridin-3-yl)methyl)-8-fluoro-3-((1S,2S)-2-hydroxycyclohexyl)-7-methyl-2,3-dihydro-4H-1,3-benzoxazin-4-one]
8 | 114% | 2 nM | Cc1c(Cc2ccc(-n3cccn3)cc2)cc2c(c1C)OCN([C@H]1COCC[C@@H]1O)C2=O [Example 23, 3-[(3S,4S)-4-hydroxytetrahydro-2H-pyran-3-yl]-7,8-dimethyl-6-[4-(1H-pyrazol-1-yl)benzyl]-2,3-dihydro-4H-1,3-benzoxazin-4-one]
9 | 106% | 14 nM | COc1ccc(Cc2cc3c(c(C)c2C)OCN([C@H]2COCC[C@@H]2O)C3=O)cn1 [Example 29, 3-((3S,4S)-4-hydroxytetrahydro-2H-pyran-3-yl)-6-((6-methoxypyridin-3-yl)methyl)-7,8-dimethyl-2,3-dihydro-4H-1,3-benzoxazin-4-one]
10 | 104% | 75 nM | Cc1c(Cc2ccc(-n3cccn3)cc2)cc2c(c1F)OCN(CC1CCCO1)C2=O (stereo not shown) [Example 78, 8-fluoro-7-methyl-6-(4-(1H-pyrazol-1-yl)benzyl)-3-(tetrahydrofuran-2-ylmethyl)-2,3-dihydro-4H-1,3-benzoxazin-4-one]
11 | 93% | 63 nM | O=C1c2cc(Cc3ccc(Cl)nc3)c3ccccc3c2OCN1CC1CCCO1 (stereo not shown) [Example 76, 6-((6-chloropyridin-3-yl)methyl)-3-(tetrahydrofuran-2-ylmethyl)-2,3-dihydro-4H-naphtho[2,1-e][1,3]oxazin-4-one]
12 | 92% | 19 nM | COc1c(Cc2ccc(-n3cccn3)nc2)cc2c(c1F)OCN([C@H]1CCC[C@@H]1O)C2=O (relative stereo) [Example 15, 8-fluoro-3-(trans-2-hydroxycyclopentyl)-7-methoxy-6-((6-(1H-pyrazol-1-yl)pyridin-3-yl)methyl)-2,3-dihydro-4H-1,3-benzoxazin-4-one]
13 | 97% | 59 nM | COc1ccc(Cc2cc3c(cc2C)OCN([C@H]2CCC[C@@H]2O)C3=O)cc1 [Example 73, 3-((1S,2S)-2-hydroxycyclopentyl)-6-(4-methoxybenzyl)-7-methyl-2,3-dihydro-4H-1,3-benzoxazin-4-one]
14 | 93% | 51 nM | O=C1c2cc(CN3CCC(F)(F)C3)c3ccccc3c2OCN1[C@H]1CCC[C@@H]1O [Example 69, 6-((3,3-difluoropyrrolidin-1-yl)methyl)-3-((1S,2S)-2-hydroxycyclopentyl)-2,3-dihydro-4H-naphtho[2,1-e][1,3]oxazin-4-one]
15 | 104% | 52 nM | N#CC1CCN(Cc2cc3c(c4ccccc24)OCN([C@H]2CCC[C@@H]2O)C3=O)CC1 [Example 70, 1-((3-((1S,2S)-2-hydroxycyclopentyl)-4-oxo-3,4-dihydro-2H-naphtho[2,1-e][1,3]oxazin-6-yl)methyl)piperidine-4-carbonitrile]
16 | 104% | 14 nM | Cc1ccc(Cc2cc3c(c(C)c2C)OCN([C@H]2COCC[C@@H]2O)C3=O)cn1 [Example 137, 1,5-anhydro-2,4-dideoxy-2-(7,8-dimethyl-6-((6-methylpyridin-3-yl)methyl)-4-oxo-2H-1,3-benzoxazin-3(4H)-yl)-L-threo-pentitol]
17 | 105% | 53 nM | Cc1cc2c(cc1Cc1ccc(-c3cn(C)nn3)nc1)C(=O)N(CC1CCCO1)CO2 (stereo not shown) [Example 71, 7-methyl-6-((6-(1-methyl-1H-1,2,3-triazol-4-yl)pyridin-3-yl)methyl)-3-(tetrahydrofuran-2-ylmethyl)-2,3-dihydro-4H-1,3-benzoxazin-4-one]
18 | 93% | 44 nM | Cn1cc(-c2ccc(Cc3ccc4c(c3)C(=O)N([C@H]3CCCC[C@@H]3O)CO4)cc2)cn1 (relative stereo) [Example 66, 3-(trans-2-hydroxycyclohexyl)-6-(4-(1-methyl-1H-pyrazol-4-yl)benzyl)-2,3-dihydro-4H-1,3-benzoxazin-4-one]
19 | 109% | 3.2 nM | O=C1c2cc(Cc3ccc(Cl)nc3)c3ccccc3c2OCN1[C@H]1COCC[C@@H]1O [Example 4, 1,5-anhydro-2-(6-((6-chloropyridin-3-yl)methyl)-4-oxo-2H-naphtho[2,1-e][1,3]oxazin-3(4H)-yl)-2,4-dideoxy-L-threo-pentitol]
20 | 96% | 1.8 nM | Cc1c(Cc2ccc(-n3cccn3)cc2)cc2c(c1F)OCN([C@H]1COCC[C@@H]1O)C2=O [Example 1, 8-fluoro-3-((3S,4S)-4-hydroxytetrahydro-2H-pyran-3-yl)-7-methyl-6-(4-(1H-pyrazol-1-yl)benzyl)-2,3-dihydro-4H-1,3-benzoxazin-4-one]
21 | 109% | 16 nM | O=C1c2cc(Cc3ccc(Cl)nc3)c3ccccc3c2OCN1[C@H]1CCCC[C@@H]1O (relative stereo) [Example 56, 6-((6-chloropyridin-3-yl)methyl)-3-(trans-2-hydroxycyclohexyl)-2,3-dihydro-4H-naphtho[2,1-e][1,3]oxazin-4-one]
22 | 101% | 4.2 nM | Cc1ccc(Cc2cc3c(c(Cl)c2C)OCN([C@H]2CCC[C@@H]2O)C3=O)cn1 [Example 25, 8-chloro-3-((1S,2S)-2-hydroxycyclopentyl)-7-methyl-6-((6-methylpyridin-3-yl)methyl)-2,3-dihydro-4H-1,3-benzoxazin-4-one]
23 | 104% | 39 nM | Cc1ccc(Cc2cc3c(cc2C)OCN([C@H]2CCCC[C@@H]2O)C3=O)cn1 (relative stereo) [Example 33, 3-(trans-2-hydroxycyclohexyl)-7-methyl-6-((6-methylpyridin-3-yl)methyl)-2,3-dihydro-4H-1,3-benzoxazin-4-one]
